{
  "source": "patent US6313161A",
  "about": "“2,19-methyleneoxy and 2,19-methylenethio bridged steroids as aromatase, 19-hydroxylase inhibitors and methods of their use in the treatment of estrogen mediated disorders” (Merrell Pharmaceuticals Inc., priority 1999, dated 2001)",
  "molecules": {"B1": {"name": "aromatase (Homo sapiens) (protein)", "chain": "MVLEMLNPIHYNITSIVPEAMPAATMPVLLLTGLFLLVWNYEGTSSIPGPGYCMGIGPLISHGRFLWMGIGSACNYYNRVYGEFMRVWISGEETLIISKSSSMFHIMKHNHYSSRFGSKLGLQCIGMHEKGIIFNNNPELWKTTRPFFMKALSGPGLVRMVTVCAESLKTHLDRLEEVTNESGYVDVLTLLRRVMLDTSNTLFLRIPLDESAIVVKIQGYFDAWQALLIKPDIFFKISWLYKKYEKSVKDLKDAIEVLIAEKRRRISTEEKLEECMDFATELILAEKRGDLTRENVNQCILEMLIAAPDTMSVSLFFMLFLIAKHPNVEEAIIKEIQTVIGERDIKIDDIQKLKVMENFIYESMRYQPVVDLVMRKALEDDVIDGYPVKKGTNIILNIGRMHRLEFFPKPNEFTLENFAKNVPYRYFQPFGFGPRGCAGKYIAMVMMKAILVTLLRRFHVKTLQGQCVESIQKIHDLSLHPDETKNMLEMIFTPRNSDRCLEH"}},
  "key": {"[1]": {"target": "T1, aromatase (Homo sapiens, UniProt P11511)", "T1 sequence (P11511 1-503)": "B1 chain", "test": "Time-dependent aromatase inhibition assay (Kitz-Wilson kinetics)", "settings": "25° C., Kitz-Wilson plots; for KI (inactivation): read-out: apparent Ki of inactivation, inhibitor concentration for half-maximal rate of enzyme inactivation", "procedure": "In this assay, the inhibitor is preincubated with enzyme prior to assaying for activity in the presence of high substrate levels. A time-related decrease in enzyme activity can be indicative of irreversible binding of the inhibitor with the enzyme.\nIn the time-dependent assay, an amount of the enzyme inhibitor in 100 μl of the assay buffer described above which will provide assay concentrations which are usually between 1 nM and 10 μM are added to 35 ml centrifuge tubes containing 600 μl of the NADPH generating system. The preincubation is started by the addition of 700 μl of aromatase preparation, usually 500-800 μg of microsomal protein per ml of assay buffer. These preparations are mixed using a vortex mixer and incubated for 0, 10, 20, or 40 minutes at 25° C. […] Following vortexing, the enzyme incubation is continued for 10 minutes before being terminated by the addition of chloroform. The amount of radioactivity in the aqueous fraction is determined by scintillation procedures. The enzymatic activity for each concentration of inhibitor at each time period of preincubation is calculated as a percent of the \"0\" minute vehicle control arbitrarily set at 100%. Therefore, the present enzyme inhibition is expressed as a percentage: (100 percent minus percent enzyme activity with inhibitor present).\nEnzyme kinetic analysis utilized Kitz-Wilson plots for time-dependent assays. These analyses provide estimates of apparent Ki of inactivation which represents the inhibitor concentration required to produce half-maximal rate of enzyme inactivation. The pseudo first-order rate constant for enzyme inactivation (kcat) and the half-time of inactivation (.tau.50) of infinite inhibitor concentrations were determined."}, "[2]": {"system": "intratumor aromatase", "test": "Inhibition of intratumor aromatase activity (estrogen formed)", "type": "in vivo", "excerpt": "According to the method of Johnston, J. O. et al., J. Steroid Biochem., 33:521, 1989, which is herein incorporated by reference, the compounds of the present invention were further evaluated for their effect upon intratumor aromatase activity."}, "[3]": {"system": "DMBA-induced mammary tumors", "test": "DMBA induced mammary tumor growth", "type": "in vivo, rat", "settings": "15 mg/kg/day sc osmotic pump, 42 days", "procedure": "The compounds of the present invention were also tested for the inhibition of tumor growth. Tumor growth inhibition was tested by the treatment of 50-day old female rats with the carcinogen, 7,12-dimethylbenz[a]anthracene[DMBA] and subsequently evaluated for tumor growth and/or remission (Huggins, C. et al., Nature 189:204, 1961; Russo, J. et al., Lab. Investigation 62: 244, 1990). Rats with DMBA-induced mammary tumors (≈[…]) were assigned to the following treatment groups: (1) Non-treated controls, (2) animals with subcutaneous implanted osmotic pump containing vehicle (DMSO/PEG200, 1:4 v/v), and (3) animals with subcutaneous implanted osmotic pump containing vehicle and 15 mg/kg/day of 2,19-(methyleneoxy) androst-4-ene-3,17-dione. Drug-treated animals also received 15 mg/kg/day via subcutaneous injections for the first two days of treatment as a priming dose. Tumor size was monitored for 42 days of drug treatment."}, "[4]": {"substrate": "C[C@]12CCC(=O)C=C1CC[C@@H]1[C@@H]2CC[C@]2(C)C(=O)CC[C@@H]12", "test": "purified protein, by the assay type", "settings": "other: substrate of aromatase; 25.0 °C", "protocol": "In the time-dependent assay, an amount of the enzyme inhibitor in 100 μl of the assay buffer described above which will provide assay concentrations which are usually between 1 nM and 10 μM are added to 35 ml centrifuge tubes containing 600 μl of the NADPH generating system. The preincubation is started by the addition of 700 μl of aromatase preparation, usually 500-800 μg of microsomal protein per ml of assay buffer. […] The amount of radioactivity in the aqueous fraction is determined by scintillation procedures. The enzymatic activity for each concentration of inhibitor at each time period of preincubation is calculated as a percent of the \"0\" minute vehicle control arbitrarily set at 100%. Therefore, the present enzyme inhibition is expressed as a percentage: (100 percent minus percent enzyme activity with inhibitor present).\nEnzyme kinetic analysis utilized Kitz-Wilson plots for time-dependent assays. […] The pseudo first-order rate constant for enzyme inactivation (kcat) and the half-time of inactivation (.tau.50) of infinite inhibitor concentrations were determined."}},
  "data": [
    {"molecule": "C[C@]12CC[C@H]3[C@@H](CCC4=CC(=O)[C@H]5COC[C@]43C5)[C@@H]1CCC2=O", "note": "[2,19-(methyleneoxy)androst-4-ene-3,17-dione]", "values": [
      {"measurement": ".tau.50 (half-time of inactivation at infinite inhibitor concentration)", "setting": "[1]", "value": 2.86, "unit": "min"},
      {"measurement": "KI (inactivation)", "setting": "[1]", "value": 17.6, "unit": "nM"},
      {"measurement": "% Inhibition of intratumor aromatase activity", "setting": "[2]; 3 mg/kg intraveneous, 2 hours post treatment", "value": "70 ± 5", "unit": "%"},
      {"measurement": "Estrogen formed, absolute level", "setting": "[2]; 3 mg/kg intraveneous, 2 hours post treatment, vehicle control 294 ± 5", "value": "88 ± 15 picomoles/gram of tumor/hour"},
      {"measurement": "% Inhibition of intratumor aromatase activity", "setting": "[2]; 3 mg/kg intraveneous, 4 hours post treatment", "value": "41 ± 4", "unit": "%"},
      {"measurement": "Estrogen formed, absolute level", "setting": "[2]; 3 mg/kg intraveneous, 4 hours post treatment, vehicle control 294 ± 5", "value": "175 ± 12 picomoles/gram of tumor/hour"},
      {"measurement": "% Inhibition of intratumor aromatase activity", "setting": "[2]; 3 mg/kg intraveneous, 6 hours post treatment", "value": "37 ± 3", "unit": "%"},
      {"measurement": "Estrogen formed, absolute level", "setting": "[2]; 3 mg/kg intraveneous, 6 hours post treatment, vehicle control 294 ± 5", "value": "186 ± 9 picomoles/gram of tumor/hour"},
      {"measurement": "% Inhibition of intratumor aromatase activity", "setting": "[2]; 3 mg/kg oral, 2 hours post treatment", "value": "72 ± 5", "unit": "%"},
      {"measurement": "Estrogen formed, absolute level", "setting": "[2]; 3 mg/kg oral, 2 hours post treatment, vehicle control 173 ± 9", "value": "49 ± 8 picomoles/gram of tumor/hour"},
      {"measurement": "% Inhibition of intratumor aromatase activity", "setting": "[2]; 3 mg/kg oral, 4 hours post treatment", "value": "64 ± 4", "unit": "%"},
      {"measurement": "Estrogen formed, absolute level", "setting": "[2]; 3 mg/kg oral, 4 hours post treatment, vehicle control 173 ± 9", "value": "62 ± 7 picomoles/gram of tumor/hour"},
      {"measurement": "% Inhibition of intratumor aromatase activity", "setting": "[2]; 3 mg/kg oral, 6 hours post treatment", "value": "63 ± 5", "unit": "%"},
      {"measurement": "Estrogen formed, absolute level", "setting": "[2]; 3 mg/kg oral, 6 hours post treatment, vehicle control 173 ± 9", "value": "64 ± 9 picomoles/gram of tumor/hour"},
      {"measurement": "% Inhibition of intratumor aromatase activity", "setting": "[2]; 3 mg/kg subcutaneous, 2 hours post treatment", "value": "44 ± 5", "unit": "%"},
      {"measurement": "Estrogen formed, absolute level", "setting": "[2]; 3 mg/kg subcutaneous, 2 hours post treatment, vehicle control 121 ± 85", "value": "68 ± 6 picomoles/gram of tumor/hour"},
      {"measurement": "% Inhibition of intratumor aromatase activity", "setting": "[2]; 3 mg/kg subcutaneous, 4 hours post treatment", "value": "45 ± 32", "unit": "%"},
      {"measurement": "Estrogen formed, absolute level", "setting": "[2]; 3 mg/kg subcutaneous, 4 hours post treatment, vehicle control 121 ± 85", "value": "67 ± 3 picomoles/gram of tumor/hour"},
      {"measurement": "% Inhibition of intratumor aromatase activity", "setting": "[2]; 3 mg/kg subcutaneous, 6 hours post treatment", "value": "35 ± 7", "unit": "%"},
      {"measurement": "Estrogen formed, absolute level", "setting": "[2]; 3 mg/kg subcutaneous, 6 hours post treatment, vehicle control 121 ± 85", "value": "78 ± 9 picomoles/gram of tumor/hour"},
      {"measurement": "percent of animals with no change", "setting": "[3]; 50 to 150% of original tumor volume, controls 6.7", "value": "14.3% of animals"},
      {"measurement": "percent of animals with partial tumor regression", "setting": "[3]; <50% of original tumor volume, controls 6.7", "value": "42.9% of animals"},
      {"measurement": "percent of animals with tumor progression", "setting": "[3]; >150% of original tumor volume, controls 80.0", "value": "28.6% of animals"},
      {"measurement": "percent of animals with complete tumor regression", "setting": "[3]; Complete (0%), controls 6.7", "value": "14.3% of animals"}
    ]},
    {"molecule": "C[C@]12CC[C@H]3[C@@H](C=CC4=CC(=O)[C@H]5COC[C@]43C5)[C@@H]1CCC2=O", "note": "[2,19-(methyleneoxy)androsta-4,6-diene-3,17-dione]", "values": [
      {"measurement": ".tau.50 (half-time of inactivation at infinite inhibitor concentration)", "setting": "[1]", "value": 2.82, "unit": "min"},
      {"measurement": "KI (inactivation)", "setting": "[1]", "value": 21.6, "unit": "nM"}
    ]},
    {"molecule": "C[C@]12CC[C@H]3[C@@H](CCC4=CC(=O)[C@H]5CSC[C@]43C5)[C@@H]1CCC2=O", "note": "[2,19-(methylenethio)androst-4-ene-3,17-dione]", "values": [
      {"measurement": ".tau.50 (half-time of inactivation at infinite inhibitor concentration)", "setting": "[1]", "value": 1.65, "unit": "min"},
      {"measurement": "KI (inactivation)", "setting": "[1]", "value": 53, "unit": "nM"}
    ]},
    {"molecule": "B1", "values": [
      {"measurement": "Km", "setting": "[4]", "value": 0.04, "unit": "µM"}
    ]}
  ]
}
